Values joined by “and” are separate entries in the source; they are usually repeats but may differ in a detail not shown here. Identical values can stand only once.
Columns and labels:
[1] = test system: MDBK cells; assay: Cytotoxicity assay, proliferation of exponentially growing MDBK cells (MTS/PMS); format: cell-based, bovine; settings: 5 days
Method: (§1) Assays were carried out, as described previously.

[2] = test system: BVDV NADL virus; assay: CPE-based antiviral assay, BVDV NADL in MDBK cells (MTS/PMS); settings: for S.I.: selectivity index, CC50 vs EC50
[3] = molecular target: T1, BVDV (NADL) RNA-dependent RNA polymerase (RdRp) (Bovine viral diarrhea virus, UniProt P19711); settings: reference compounds; cited from earlier work
T1 construct: BVDV (NADL) RNA-dependent RNA polymerase (RdRp) was expressed and purified; made in house

[4] = molecular target: T1, BVDV (NADL) RNA-dependent RNA polymerase (RdRp); assay: RNA-dependent RNA polymerase assay, poly(C) template; format: biochemical; settings: purified RdRp; for effect on the activity of the viral polymerase: up to 500 µM
Method: BVDV (NADL) RNA-dependent RNA polymerase (RdRp) was expressed and purified, as described before. […] In brief, the purified BVDV polymerase (100 nM) was mixed with 100 µM GTP (containing 8.3 µM of [^3H]GTP, Perkin Elmer) and increasing concentration of the inhibitor (0.2 µM, 0.7 µM, 2 µM, 6 µM, 19 µM, 56 µM, 165 µM or 500 µM) in 50 mM Hepes pH 8.0, 10 mM KCl, 10 mM DTT, 1 mM MgCl2, 2mM MnCl2, and 0.5% igepal (Sigma). The enzyme mix and inhibitors were pre-incubated, in order to favor enzyme-inhibitor interactions before RNA binding. Reactions were started by the addition of 100 nM of poly(C) (about 500 nt in size) template. Reactions were incubated at 30 °C and stopped by addition of 50 mM EDTA. Samples were transferred onto DE-81 filters, washed with 0.3 M ammonium formate solution, and dried. Radioactivity bound to the filter was determined by liquid scintillation counting.

[5] = test system: panel of unrelated RNA and DNA viruses; assay: Activity against a panel of unrelated RNA and DNA viruses; format: cell-based; settings: data not shown
[6] = Cytotoxicity assay, proliferation of exponentially growing MDBK cells (MTS/PMS); format: cell-based, bovine; settings: bovine
Method: as §1

[7] = test system: hepatitis C virus; assay: In vitro activity against hepatitis C virus; format: cell-based
[8] = test system: BVDV-1 (strain NADL); assay: microbe, parasite or virus in culture; format: cell-based, bovine viral diarrhea virus (BVDV); settings: Bovine viral diarrhea virus isolates and strains; RT-qPCR, MDBK cells
[9] = molecular target: BVDV WT replication complexes (Bovine viral diarrhea virus, UniProt P19711); assay: Replication complex (RC) assay, wild-type BVDV; format: biochemical; settings: for effect on activity of BVDV WT replication complexes: RCs isolated 14 h post-infection
Method: (§2) The replication complex (RC) assay is similar to the one described before. In brief, BVDV-infected MDBK cells were suspended in an ice-cold hypotonic buffer A (10 mM Tris, 10 mM NaCl pH 7.8) and were further disrupted by 50 strokes with a Dounce homogenizer. The disrupted cells were pelleted by centrifugation at 1,000× g for 5 min at 4 °C. The supernatant fraction, containing cytoplasmic material and plasma membranes, was concentrated by high-speed centrifugation at 200,000× g for 20 min at 4 °C. The pellet was resuspended in 120 µL of hypotonic buffer B (10 mM Tris, 10 mM NaCl pH 7.8 and 15% glycerol) and used for an RNA polymerase assay. Replicase reactions were carried out, as described before, with some modifications. The [α-^33P]UTP (3,000 mCi/mmol) was replaced by [α-^33P]CTP (3,000 mCi/mmol). The following incubation, RNA extraction, RNA analysis, and quantification were performed, as previously described.

[10] = test system: classical swine fever virus (CSFV); format: cell-based
[11] = test system: RCs from MDBK cells infected with the TO505-6180res virus; assay: Replication complex (RC) assay, TO505-6180res BVDV; format: biochemical, bovine viral diarrhea virus (BVDV); settings: RCs from TO505-6180res infected MDBK cells
Method: as §2

[12] = sheet CSFCII#, potency relative to TO502-2403 (EC50 0.2 µM)
[13] = Bovine viral diarrhea virus isolates and strains, MDBK, 72 h
[14] = protection against BVDV (NADL, wild type)-induced CPE in MDBK cells, 3 days

T1 sequence (P19711 3270-3988): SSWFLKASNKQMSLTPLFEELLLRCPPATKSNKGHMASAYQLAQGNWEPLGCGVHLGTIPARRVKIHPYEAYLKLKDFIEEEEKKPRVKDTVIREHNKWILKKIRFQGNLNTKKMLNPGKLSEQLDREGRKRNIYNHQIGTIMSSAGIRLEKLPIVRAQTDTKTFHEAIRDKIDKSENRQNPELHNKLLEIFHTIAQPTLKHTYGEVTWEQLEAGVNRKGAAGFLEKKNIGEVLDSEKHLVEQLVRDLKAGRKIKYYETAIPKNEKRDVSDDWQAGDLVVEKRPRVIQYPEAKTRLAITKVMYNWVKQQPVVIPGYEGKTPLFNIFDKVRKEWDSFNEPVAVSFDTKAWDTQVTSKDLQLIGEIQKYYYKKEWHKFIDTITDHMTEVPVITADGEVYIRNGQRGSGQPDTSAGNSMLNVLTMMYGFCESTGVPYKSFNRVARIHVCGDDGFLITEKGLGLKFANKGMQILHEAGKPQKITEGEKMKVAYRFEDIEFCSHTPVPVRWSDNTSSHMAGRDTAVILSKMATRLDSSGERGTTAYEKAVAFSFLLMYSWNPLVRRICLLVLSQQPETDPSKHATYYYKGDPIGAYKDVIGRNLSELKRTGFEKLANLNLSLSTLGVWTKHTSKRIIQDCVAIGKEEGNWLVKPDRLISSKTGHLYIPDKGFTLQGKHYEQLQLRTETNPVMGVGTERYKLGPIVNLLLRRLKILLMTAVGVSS
BVDV WT replication complexes, sequence (P19711 3270-3988, one chain of several): as the sequence (P19711 3270-3988) above

Compound: Cc1cc(nn1)NC(=O)c3cc(nc2ccccc23)c4ccccc4 [CSFC-20]
- CC50 [1]: > 100 µM
- S.I. [2]: 1
- fold increase [2, 12]: 0.002

Compound: Brc1ccc(Cn2ccc3nc(-c4ccccc4)nc-3c2)cc1 [BPIP, 5-[(4-bromophenyl)methyl]-2-phenyl-5H-imidazo[4,5-c]pyridine]
- inhibitory effect on the highly purified BVDV RdRp [3]: none of these compounds had any inhibitory effect

Compound: Nc1nc2c(ncn2[C@@H]2O[C@H](COP(=O)(O)OP(=O)(O)OP(=O)(O)O)C[C@H]2O)c(=O)[nH]1 [3′-dGTP, 3′-deoxyguanosine-5’-triphosphate, reference compound]
- IC50 ([4]; read-out: 50% inhibitory concentration for the BVDV polymerase activity): < 1 µM

Compound: O=C(Nc1ccn(-c2ccccc2)n1)c1cc(-c2ccccc2)nc2ccccc12 [TO502-2403, 2-phenyl-N-(1-phenyl-1H-pyrazol-3-yl)-4-Quinolinecarboxamide]
- activity against a panel of unrelated RNA and DNA viruses [5]: inactive
- effect on the activity of the viral polymerase [4]: no effect
- CC50 at 5 days [6]: > 100 µM
- in vitro activity against hepatitis C virus [7]: inactive
- EC50 [8]: 0.06 µM and 0.05 µM
- effect on activity of BVDV WT replication complexes [9]: inhibited the activity of the BVDV WT replication complexes in a dose-dependent manner
- inhibition at 10 µM ([9]; at 10 µM, read-out: maximum inhibition of BVDV WT replication complex activity): ~90%
- inhibition of in vitro CSFV replication [10]: inhibited
- EC50 [2, 13]: 0.2 µM

Compound: Nc1nc2c(cnn2CCCc2ccc3c(c2)OCO3)c2nc(-c3ccco3)nn12 [LZ37, 7-[3-(1,3-benzodioxol-5-yl)propyl]-2-(2-furyl)-7H-pyrazolo[4,3-e][1,2, 4]triazolo[1,5-c]pyrimidin-5-amine]
- inhibitory effect on the highly purified BVDV RdRp [3]: none of these compounds had any inhibitory effect

Compound: Cc1cccc2sc(nc12)NC(=O)c4cc(nc3ccccc34)c5cccn5 [CSFC-59]
- CC50 [1]: > 100 µM
- EC50 [2, 14]: 54 µM
- S.I. [2]: 2
- fold increase [2, 12]: 0.0037

Compound: CCOC(=O)c1cc2ccn3c(c-2n1)N=C(C)C3 [AG110, ethyl 2-methylimidazo[1,2-a]pyrrolo[2,3-c]pyridin-8-carboxylate]
- inhibitory effect on the highly purified BVDV RdRp [3]: none of these compounds had any inhibitory effect

Compound: O=C(Nc2cc(c1ccccc1)nn2)c4cc(nc3ccc(F)cc34)c5cccs5 [CSFC-124]
- CC50 [1]: > 100 µM
- EC50 [2, 14]: 22 µM
- S.I. [2]: 5
- fold increase [2, 12]: 0.00909

Compound: Cc1ccc2nc(NC(=O)c3cc(-c4ccco4)nc4ccccc34)sc2c1 [TO505-6180, 2-(2-furanyl)-N-(6-methyl-2-benzothiazolyl)-4-Quinolinecarboxamide]
- activity against a panel of unrelated RNA and DNA viruses [5]: inactive
- effect on the activity of the viral polymerase [4]: no effect
- CC50 at 5 days [6]: > 100 µM
- fold less susceptible than BVDV wt RCs [11]: 3 to 4 fold
- in vitro activity against hepatitis C virus [7]: inactive
- EC50 [8]: 0.03 µM and 0.06 µM
- effect on activity of BVDV WT replication complexes [9]: inhibited the activity of the BVDV wt RCs in a dose-dependent manner
- inhibition of in vitro CSFV replication [10]: inhibited
- EC50 [2, 13]: 0.07 µM

Compound: Cc1c(-c2ccco2)nc2ccccc2c1C(=O)Nc1nc2c(C)cccc2s1 [CSFC-105, Cc2c(nc1ccccc1c2C(=O)Nc3nc4c(C)cccc4s3)c5ccco5]
- CC50 at 5 days [6]: > 100 µM
- EC50 [2, 13]: 0.7 µM
- S.I. [2]: 143
- fold increase [2, 12]: 0.29

Compound: COc1ccc2nc(NC(=O)c3cc(-c4ccco4)nc4ccc(F)cc34)sc2c1 [CSFC-63, Fc1cc2c(cc1)nc(cc2C(=O)Nc3nc4ccc(cc4s3)OC)c5ccco5]
- CC50 at 5 days [6]: > 100 µM
- EC50 [2, 13]: 18.8 µM
- S.I. [2]: 5
- fold increase [2, 12]: 0.0106

Compound: Cc1ccc2nc(NC(=O)c3cc(-c4ccccc4)nc4ccccc34)sc2c1 [CSFC-2, Cc1ccc2nc(NC(=O)c3cc(nc4ccccc43)c3ccccc3)sc2c1]
- CC50 at 5 days [6]: > 100 µM
- EC50 [2, 13]: 5.7 µM
- S.I. [2]: 18
- fold increase ([2]; sheet CSFCI#, potency relative to TO505-6180 (EC50 0.07 µM)): 0.0123

Compound: Cc1cccc2sc(NC(=O)c3cc(-c4cccs4)nc4ccc(Br)cc34)nc12 [CSFC-95, Brc1cc2c(cc1)nc(cc2C(=O)Nc3nc4c(C)cccc4s3)c5cccs5]
- CC50 at 5 days [6]: > 100 µM
- EC50 [2, 13]: 3.1 µM
- S.I. [2]: 32
- fold increase [2, 12]: 0.0645

Compound: O=C(Nc1nccs1)c1cc(-c2ccccc2)nc2ccccc12 [CSFC-16, O=C(c1cc(nc2ccccc12)c3ccccc3)Nc4nccs4]
- CC50 at 5 days [6]: > 100 µM
- EC50 [2, 13]: 30 µM
- S.I. [2]: 3
- fold increase [2, 12]: 0.00667
